ChEMBL document CHEMBL1154627, “Structure-activity relationship studies of targeting ligands against breast cancer cells” (J Med Chem, 2009)
Active and inactive are the calls of the source. The rule behind the calls is not given here.

System: not listed separately
Experiment: Binding affinity to alpha3beta1 integrin receptor in human MDA-MB-231 cells assessed as inhibition of cell binding to immobilized LXY1 peptide by cell adherence assay
Format: cell-based

IC50 [µM]	Compound
2.1	NC(=O)C[C@@H]1NC(=O)[C@@H]2C[C@@H](O)CN2C(=O)CNC(=O)[C@H](c2cc(F)cc(F)c2)NC(=O)CNC(=O)[C@@H](CC(=O)O)NC(=O)[C@H](N)CSSC[C@H](C(N)=O)NC1=O
> 25	NC(=O)C[C@@H]1NC(=O)[C@@H]2C[C@@H](O)CN2C(=O)CNC(=O)[C@H](Cc2ccc(O)c([N+](=O)[O-])c2)NC(=O)CNC(=O)[C@@H](CC(=O)O)NC(=O)[C@H](N)C/C=C/C[C@H](C(N)=O)NC1=O
> 25	CC1(C)SSC(C)(C)[C@H](C(N)=O)NC(=O)[C@H](CC(N)=O)NC(=O)[C@@H]2C[C@@H](O)CN2C(=O)CNC(=O)[C@H](Cc2ccc(O)c([N+](=O)[O-])c2)NC(=O)CNC(=O)[C@@H](CC(=O)O)NC(=O)[C@@H]1N
11.9	NC(=O)C[C@@H]1NC(=O)[C@@H]2C[C@@H](O)CN2C(=O)CNC(=O)[C@H](Cc2cc([N+](=O)[O-])c(O)c([N+](=O)[O-])c2)NC(=O)CNC(=O)[C@@H](CC(=O)O)NC(=O)[C@H](N)CSSC[C@H](C(N)=O)NC1=O
> 25	NC(=O)C[C@@H]1NC(=O)[C@@H]2C[C@@H](O)CN2C(=O)CNC(=O)[C@H](Cc2ccc(O)c([N+](=O)[O-])c2)NC(=O)CNC(=O)[C@@H](CC(=O)O)NC(=O)[C@H](NC(=O)Nc2ccc(C(F)(F)F)cc2)CSSC[C@H](C(N)=O)NC1=O
> 25	NC(=O)C[C@@H]1NC(=O)[C@@H]2C[C@@H](O)CN2C(=O)CNC(=O)[C@H](Cc2ccc(O)c([N+](=O)[O-])c2)NC(=O)CNC(=O)[C@@H](CC(=O)O)NC(=O)[C@H](NC(=O)CCc2ccccc2)CSSC[C@H](C(N)=O)NC1=O
16.9	NC(=O)C[C@@H]1NC(=O)[C@@H]2C[C@@H](O)CN2C(=O)CNC(=O)[C@@H]2CCCN2C(=O)CNC(=O)[C@@H](CC(=O)O)NC(=O)[C@H](N)CSSC[C@H](C(N)=O)NC1=O
> 25	NC(=O)C[C@@H]1NC(=O)[C@@H]2C[C@@H](O)CN2C(=O)CNC(=O)[C@H](Cc2ccc(O)c(N)c2)NC(=O)CNC(=O)[C@@H](CC(=O)O)NC(=O)[C@H](N)CSSC[C@H](C(N)=O)NC1=O
> 25	NC(=O)C[C@@H]1NC(=O)[C@@H]2C[C@@H](O)CN2C(=O)CNC(=O)[C@H](Cc2ccc(O)c([N+](=O)[O-])c2)NC(=O)CNC(=O)[C@@H](CC(=O)O)NC(=O)[C@H](NCc2ccc(-c3ccccc3)cc2)CSSC[C@H](C(N)=O)NC1=O
> 25	NC(=O)C[C@@H]1NC(=O)[C@@H]2C[C@@H](O)CN2C(=O)CNC(=O)[C@H](Cc2ccc(O)c([N+](=O)[O-])c2)NC(=O)CNC(=O)[C@@H](CC(=O)O)NC(=O)[C@H](NC(=O)Nc2ccc([N+](=O)[O-])cc2)CSSC[C@H](C(N)=O)NC1=O
> 25	NC(=O)C[C@@H]1NC(=O)[C@@H]2C[C@@H](O)CN2C(=O)CNC(=O)[C@H](CCc2ccc(O)cc2)NC(=O)CNC(=O)[C@@H](CC(=O)O)NC(=O)[C@H](N)CSSC[C@H](C(N)=O)NC1=O
21.4	NC(=O)C[C@@H]1NC(=O)[C@@H]2C[C@@H](O)CN2C(=O)CNC(=O)[C@@H]2CCN2C(=O)CNC(=O)[C@@H](CC(=O)O)NC(=O)[C@H](N)CSSC[C@H](C(N)=O)NC1=O
> 25	CCCCCCN[C@@H]1CSSC[C@H](C(N)=O)NC(=O)[C@H](CC(N)=O)NC(=O)[C@@H]2C[C@@H](O)CN2C(=O)CNC(=O)[C@H](Cc2ccc(O)c([N+](=O)[O-])c2)NC(=O)CNC(=O)[C@@H](CC(=O)O)NC1=O
19	NC(=O)C[C@@H]1NC(=O)[C@@H]2C[C@@H](O)CN2C(=O)CNC(=O)[C@H](c2ccccc2Cl)NC(=O)CNC(=O)[C@@H](CC(=O)O)NC(=O)[C@H](N)CSSC[C@H](C(N)=O)NC1=O
10.5	NC(=O)C[C@@H]1NC(=O)[C@@H]2C[C@@H](O)CN2C(=O)CNC(=O)[C@@H]2SCCN2C(=O)CNC(=O)[C@@H](CC(=O)O)NC(=O)[C@H](N)CSSC[C@H](C(N)=O)NC1=O
19.8	NC(=O)C[C@@H]1NC(=O)[C@@H]2C[C@@H](O)CN2C(=O)CNC(=O)[C@H](Cc2ccc(O)c(Cl)c2)NC(=O)CNC(=O)[C@@H](CC(=O)O)NC(=O)[C@H](N)CSSC[C@H](C(N)=O)NC1=O

Target: T1, Integrin alpha-3 (Homo sapiens) (UniProt P26006)
T1 sequence (whole entry): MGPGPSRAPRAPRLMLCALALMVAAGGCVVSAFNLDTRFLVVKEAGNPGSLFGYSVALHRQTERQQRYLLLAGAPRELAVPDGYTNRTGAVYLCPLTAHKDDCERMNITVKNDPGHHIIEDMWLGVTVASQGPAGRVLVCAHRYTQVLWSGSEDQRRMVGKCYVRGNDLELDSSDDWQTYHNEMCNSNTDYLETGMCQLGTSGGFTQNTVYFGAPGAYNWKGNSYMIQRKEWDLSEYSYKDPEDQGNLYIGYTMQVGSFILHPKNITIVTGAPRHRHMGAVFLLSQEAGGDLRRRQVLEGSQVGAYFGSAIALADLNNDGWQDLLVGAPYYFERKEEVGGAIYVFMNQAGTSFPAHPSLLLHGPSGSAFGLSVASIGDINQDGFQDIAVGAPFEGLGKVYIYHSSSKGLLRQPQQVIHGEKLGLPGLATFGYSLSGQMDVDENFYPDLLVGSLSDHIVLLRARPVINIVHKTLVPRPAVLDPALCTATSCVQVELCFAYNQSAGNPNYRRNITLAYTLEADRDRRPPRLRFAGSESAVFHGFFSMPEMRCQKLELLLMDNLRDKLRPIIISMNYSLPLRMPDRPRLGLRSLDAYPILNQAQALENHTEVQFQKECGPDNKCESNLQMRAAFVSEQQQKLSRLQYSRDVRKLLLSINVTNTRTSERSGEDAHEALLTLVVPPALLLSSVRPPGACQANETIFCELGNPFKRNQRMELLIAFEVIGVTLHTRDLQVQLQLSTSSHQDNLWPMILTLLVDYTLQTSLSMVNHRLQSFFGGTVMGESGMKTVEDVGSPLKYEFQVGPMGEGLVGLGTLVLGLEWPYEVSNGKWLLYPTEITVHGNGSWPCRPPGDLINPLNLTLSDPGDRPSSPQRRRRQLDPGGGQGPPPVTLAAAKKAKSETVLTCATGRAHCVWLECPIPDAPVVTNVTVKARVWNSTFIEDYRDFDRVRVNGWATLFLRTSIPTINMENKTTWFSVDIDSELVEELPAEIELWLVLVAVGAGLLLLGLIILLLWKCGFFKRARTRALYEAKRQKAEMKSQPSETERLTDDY
Experiment: Binding affinity to alpha3 integrin receptor in human MDA-MB-231 cells by fluorescent microscopy
Format: cell-based

Activity	Compound
Active	NC(=O)C[C@@H]1NC(=O)[C@@H]2C[C@@H](O)CN2C(=O)CNC(=O)[C@H](c2cc(F)cc(F)c2)NC(=O)CNC(=O)[C@@H](CC(=O)O)NC(=O)[C@H](N)CSSC[C@H](C(N)=O)NC1=O

System: Mus musculus
Experiment: In vivo binding affinity to alpha3 integrin receptor in human MDA-MB-231 cells xenografted in iv dosed athymic nude mouse nu/nu by fluorescent imaging
Format: functional, organism-based

Compound	Activity
NC(=O)C[C@@H]1NC(=O)[C@@H]2C[C@@H](O)CN2C(=O)CNC(=O)[C@H](c2cc(F)cc(F)c2)NC(=O)CNC(=O)[C@@H](CC(=O)O)NC(=O)[C@H](N)CSSC[C@H](C(N)=O)NC1=O	Active

System: Mus musculus
Experiment: Ex vivo binding affinity to alpha3 integrin receptor in human MDA-MB-231 cells xenografted in iv dosed athymic nude mouse nu/nu by fluorescent imaging
Format: functional, organism-based

Compound	Activity
NC(=O)C[C@@H]1NC(=O)[C@@H]2C[C@@H](O)CN2C(=O)CNC(=O)[C@H](c2cc(F)cc(F)c2)NC(=O)CNC(=O)[C@@H](CC(=O)O)NC(=O)[C@H](N)CSSC[C@H](C(N)=O)NC1=O	Active
